Results from ChEMBL document CHEMBL1949621, “Fluorocyclines. 1. 7-fluoro-9-pyrrolidinoacetamido-6-demethyl-6-deoxytetracycline: a potent, broad spectrum antibacterial agent” (J Med Chem, 2012).
Converted amounts (≈) assume the structure as drawn.

Legend:
Staphylococcus aureus [1] = assay: Antibacterial activity against Staphylococcus aureus ATCC 101 29213; format: functional
Staphylococcus aureus [2] = assay: Antibacterial activity against tetracycline- and methicillin-resistant Staphylococcus aureus 161; format: functional
Staphylococcus aureus [3] = assay: microbe, parasite or virus in culture; format: functional; settings: 158
Enterococcus faecalis [4] = assay: Antibacterial activity against Enterococcus faecalis ATCC 103 29212; format: functional
Enterococcus faecalis [5] = assay: Antibacterial activity against tetracycline-resistant Enterococcus faecalis 159; format: functional
Streptococcus pneumoniae [6] = assay: microbe, parasite or virus in culture; format: functional; settings: ATCC 106 49619
Description: Antibacterial activity against Streptococcus pneumoniae ATCC 106 49619

Streptococcus pneumoniae [7] = assay: Antibacterial activity against tetracycline-resistant Streptococcus pneumoniae 160; format: functional
Escherichia coli [8] = assay: Antibacterial activity against Escherichia coli ATCC 107 25922; format: functional
Escherichia coli [9] = assay: Antibacterial activity against tetracycline-resistant Escherichia coli 155; format: functional
Acinetobacter baumannii [10] = assay: Antibacterial activity against Acinetobacter baumannii ATCC 19606 110; format: functional
Pseudomonas aeruginosa = assay: Antibacterial activity against Pseudomonas aeruginosa ATCC 111 27853; format: functional
Enterobacter cloacae = assay: Antibacterial activity against Enterobacter cloacae ATCC 108 13047; format: functional
Klebsiella pneumoniae [11] = assay: Antibacterial activity against Klebsiella pneumoniae ATCC 109 13883; format: functional
Klebsiella pneumoniae [12] = assay: Antibacterial activity against tetracycline-resistant Klebsiella pneumoniae 153; format: functional
Escherichia coli [13] = assay: Antibacterial activity against tetracycline-resistant Escherichia coli 133 infected in iv dosed CD-1 mouse assessed as protection from infection administered 1 hr post infection measured after 24 hrs; format: functional; settings: Escherichia coli, 133, iv; read-out: PD50
Escherichia coli [14] = assay: Antibacterial activity against tetracycline-resistant Escherichia coli 133 infected in iv dosed CD-1 mouse assessed as reduction in bacterial burden administered 1 hr post infection measured after 24 hrs; format: functional
Staphylococcus aureus [15] = assay: Antibacterial activity against tetracycline-resistant Staphylococcus aureus 191 infected in iv dosed CD-1 mouse assessed as dose required for 1 log bacterial burden reduction administered 1.5 hr post infection measured after 24 hrs; format: functional
Staphylococcus aureus [16] = assay: Antibacterial activity against tetracycline-resistant Staphylococcus aureus 191 infected in iv dosed CD-1 mouse assessed as dose required for 3 log bacterial burden reduction administered 1.5 hr post infection measured after 24 hrs; format: functional
Staphylococcus aureus [17] = assay: Antibacterial activity against tetracycline-resistant Staphylococcus aureus 191 infected in iv dosed CD-1 mouse assessed as reduction in bacterial burden administered 1.5 hr post infection measured after 24 hrs; format: functional
[18] = Elimination half life in Sprague-Dawley rat at 10 mg/kg, po by LC/MS-MS analysis; format: ADME, organism-based; design: dose 10 mg/kg, route oral; settings: in vivo, read-out: beta t1/2 (converted)
[19] = AUClast in Sprague-Dawley rat at 1 mg/kg, iv by LC/MS-MS analysis; format: ADME, organism-based; design: time 0 - last, dose 1 mg/kg, route intravenous; settings: plasma
[20] = AUClast in Sprague-Dawley rat at 10 mg/kg, po by LC/MS-MS analysis; format: ADME, organism-based; design: dose 10 mg/kg, route oral, time 0 - last; settings: plasma
[21] = Oral bioavailability in Sprague-Dawley rat at 10 mg/kg by LC/MS-MS analysis; format: ADME, organism-based; settings: in vivo
Escherichia coli [22] = assay: Ratio of tetracycline IC50 to compound IC50 for Escherichia coli ribosome-mediated translation; format: subcellular
Bacterial 70S ribosome = assay: Inhibition of Escherichia coli ribosome-mediated translation after 60 mins by transcription/translation-coupled luciferase reporter gene assay; format: subcellular
Staphylococcus aureus [23] = assay: Ratio of tigecycline MIC to compound MIC for Staphylococcus aureus ATCC 101 29213; format: functional
Enterococcus faecalis [24] = assay: Ratio of tigecycline MIC to compound MIC for Enterococcus faecalis ATCC 103 29212; format: functional
Escherichia coli [25] = assay: Ratio of tigecycline MIC to compound MIC for Escherichia coli ATCC 107 25922; format: functional
Acinetobacter baumannii [26] = assay: Ratio of tigecycline MIC to compound MIC for Acinetobacter baumannii ATCC 19606 110; format: functional
[27] = (§1) Clearance in Sprague-Dawley rat at 1 mg/kg, iv by LC/MS-MS analysis; format: ADME, organism-based; design: dose 1 mg/kg, route intravenous; settings: Sprague-Dawley, in vivo
[28] = Apparent volume of distribution in Sprague-Dawley rat at 1 mg/kg, iv by LC/MS-MS analysis; settings: in vivo
[29] = Elimination half life in Sprague-Dawley rat at 1 mg/kg, iv by LC/MS-MS analysis; format: ADME, organism-based; design: dose 1 mg/kg, route intravenous; settings: in vivo, read-out: beta t1/2 (converted)
Rattus norvegicus = assay: as §1; format: ADME, organism-based; design: dose 1 mg/kg, route intravenous; settings: in vivo
[30] = Oral bioavailability in human; format: ADME, organism-based; settings: in vivo

Molecule `CN(C)c1cc(NC(=O)CNC(C)(C)C)c(O)c2c1C[C@H]1C[C@H]3[C@H](N(C)C)C(O)=C(C(N)=O)C(=O)[C@@]3(O)C(O)=C1C2=O` [TIGECYCLINE] has an MIC (Staphylococcus aureus [1]) of 0.0625 µg/mL (≈ 0.107 µM), an MIC (Staphylococcus aureus [2]) of 0.125 µg/mL (≈ 0.213 µM) and an MIC (Staphylococcus aureus [3]) of 0.125 µg/mL (≈ 0.213 µM). For the same molecule, the MIC (Enterococcus faecalis [4]) was 0.0625 µg/mL (≈ 0.107 µM), the MIC (Enterococcus faecalis [5]) was 0.0625 µg/mL (≈ 0.107 µM) and the MIC (Streptococcus pneumoniae [6]) was 0.0156 µg/mL (≈ 0.0266 µM). The MIC (Streptococcus pneumoniae [7]) was 0.0156 µg/mL (≈ 0.0266 µM), the MIC (Escherichia coli [8]) was 0.125 µg/mL (≈ 0.213 µM) and the MIC (Escherichia coli [9]) was 1 µg/mL (≈ 1.71 µM). For the same molecule, the MIC (Acinetobacter baumannii [10]) was 0.5 µg/mL (≈ 0.854 µM), the MIC (Pseudomonas aeruginosa) was 16 µg/mL (≈ 27.3 µM) and the MIC (Enterobacter cloacae) was 0.25 µg/mL (≈ 0.427 µM). It also gave an MIC (Klebsiella pneumoniae [11]) of 0.25 µg/mL (≈ 0.427 µM), an MIC (Klebsiella pneumoniae [12]) of 1 µg/mL (≈ 1.71 µM) and an ED50 (Escherichia coli [13]) of 3.5 mg/kg. It also gave an MIC (Escherichia coli [14]) of 0.125 µg/mL (≈ 0.213 µM), an Activity (Staphylococcus aureus [15]) of 3 mg/kg and an Activity (Staphylococcus aureus [16]) of 17.3 mg/kg. For the same molecule, the MIC (Staphylococcus aureus [17]) was 0.25 µg/mL (≈ 0.427 µM), the half-life [18] was 239 min and the AUC(0-t) [19] was 1050 ng·h/mL. It also gave an AUC(0-t) [20] of 107 ng·h/mL and a bioavailability [21] of 1%.

With `CN[C@H](CC(C)C)C(=O)N[C@H]1C(=O)N[C@@H](CC(N)=O)C(=O)N[C@H]2C(=O)N[C@H]3C(=O)N[C@H](C(=O)N[C@H](C(=O)O)c4cc(O)cc(O)c4-c4cc3ccc4O)[C@H](O)c3ccc(c(Cl)c3)Oc3cc2cc(c3O[C@@H]2O[C@H](CO)[C@@H](O)[C@H](O)[C@H]2O[C@H]2C[C@](C)(N)[C@H](O)[C@H](C)O2)Oc2ccc(cc2Cl)[C@H]1O` [VANCOMYCIN] the Activity (Staphylococcus aureus [15]) was 0.75 mg/kg and the Activity (Staphylococcus aureus [16]) was 10 mg/kg.

`CN(C)[C@@H]1C(O)=C(C(N)=O)C(=O)[C@@]2(O)C(O)=C3C(=O)c4c(O)c(NC(=O)CN5CCCC5)cc(F)c4C[C@H]3C[C@@H]12` [ERAVACYCLINE] showed a Ratio IC50 (Escherichia coli [22]) of 7, an IC50 (Bacterial 70S ribosome) of 620 nM and an MIC (Staphylococcus aureus [1]) of 0.0156 µg/mL (≈ 0.0279 µM). It also gave an MIC (Staphylococcus aureus [2]) of 0.0156 µg/mL (≈ 0.0279 µM), an MIC (Staphylococcus aureus [3]) of 0.0156 µg/mL (≈ 0.0279 µM) and an MIC (Enterococcus faecalis [4]) of 0.0156 µg/mL (≈ 0.0279 µM). For the same molecule, the MIC (Enterococcus faecalis [5]) was 0.0156 µg/mL (≈ 0.0279 µM), the MIC (Streptococcus pneumoniae [6]) was 0.0156 µg/mL (≈ 0.0279 µM) and the MIC (Streptococcus pneumoniae [7]) was 0.0156 µg/mL (≈ 0.0279 µM). It also gave an MIC (Escherichia coli [8]) of 0.0156 µg/mL (≈ 0.0279 µM), an MIC (Escherichia coli [9]) of 1 µg/mL (≈ 1.79 µM) and an MIC (Acinetobacter baumannii [10]) of 0.0312 µg/mL (≈ 0.0559 µM). The MIC (Pseudomonas aeruginosa) was 8 µg/mL (≈ 14.3 µM), the MIC (Enterobacter cloacae) was 0.125 µg/mL (≈ 0.224 µM) and the MIC (Klebsiella pneumoniae [11]) was 0.125 µg/mL (≈ 0.224 µM). The MIC (Klebsiella pneumoniae [12]) was 0.5 µg/mL (≈ 0.895 µM), the Ratio (Staphylococcus aureus [23]) was 4 and the Ratio (Enterococcus faecalis [24]) was 4. It also gave a Ratio (Escherichia coli [25]) of 4, a Ratio (Acinetobacter baumannii [26]) of 4 and an ED50 (Escherichia coli [13]) of 1.3 mg/kg. It also gave an MIC (Escherichia coli [14]) of 0.125 µg/mL (≈ 0.224 µM), an Activity (Staphylococcus aureus [15]) of 0.6 mg/kg and an Activity (Staphylococcus aureus [16]) of 3 mg/kg. The MIC (Staphylococcus aureus [17]) was 0.25 µg/mL (≈ 0.448 µM), the clearance [27] was 9.4 mL/min/kg and the Vd [28] was 3.2 L/kg. It also gave a half-life [29] of 240 min, a half-life [18] of 414 min and an AUC(0-t) [19] of 1770 ng·h/mL. The AUC(0-t) [20] was 295 ng·h/mL and the bioavailability [21] was 1.7%.

Work on `CN(C)[C@@H]1C(O)=C(C(N)=O)C(=O)[C@@]2(O)C(O)=C3C(=O)c4c(O)cccc4[C@@](C)(O)[C@H]3C[C@@H]12` [TETRACYCLINE] yielded an IC50 (Bacterial 70S ribosome) of 4580 nM, an MIC (Staphylococcus aureus [1]) of 0.125 µg/mL (≈ 0.281 µM) and an MIC (Staphylococcus aureus [2]) of 64 µg/mL (≈ 144 µM). For the same molecule, the MIC (Enterococcus faecalis [4]) was 16 µg/mL (≈ 36 µM), the MIC (Enterococcus faecalis [5]) was 64 µg/mL (≈ 144 µM) and the MIC (Streptococcus pneumoniae [6]) was 0.25 µg/mL (≈ 0.563 µM). For the same molecule, the MIC (Escherichia coli [8]) was greater than 1 µg/mL, the MIC (Escherichia coli [9]) was greater than 64 µg/mL and the MIC (Acinetobacter baumannii [10]) was 1 µg/mL (≈ 2.25 µM). It also gave an MIC (Pseudomonas aeruginosa) of 16 µg/mL (≈ 36 µM), an MIC (Enterobacter cloacae) of 1 µg/mL (≈ 2.25 µM) and an MIC (Klebsiella pneumoniae [11]) of 2 µg/mL (≈ 4.5 µM). It also gave an MIC (Klebsiella pneumoniae [12]) greater than 64 µg/mL, a CL (Rattus norvegicus) of 0.542 L/h/kg and an AUC(0-t) [19] of 3080 ng·h/mL. For the same molecule, the AUC(0-t) [20] was 4540 ng·h/mL, the bioavailability [21] was 14.9% and the bioavailability [30] was 60%.
